Numbers after ± are expanded uncertainties.
Experiments:
[1] = Liquid
[2] = refractive index (Na D-line) (dimensionless); conditions: 298.15 K; 101.33 kPa; Liquid; Standard Abbe refractometry

| vapor or sublimation pressure ([1]; 291.95 K) [kPa] | vapor or sublimation pressure ([1]; 295.15 K) [kPa] | vapor or sublimation pressure ([1]; 299.35 K) [kPa] | vapor or sublimation pressure ([1]; 307.05 K) [kPa] | vapor or sublimation pressure ([1]; 310.45 K) [kPa] | vapor or sublimation pressure ([1]; 316.75 K) [kPa] | SMILES | vapor or sublimation pressure ([1]; 298.15 K) [kPa] | vapor or sublimation pressure ([1]; 303.15 K) [kPa] | vapor or sublimation pressure ([1]; 308.15 K) [kPa] | vapor or sublimation pressure ([1]; 313.15 K) [kPa] | refractive index [2] | vapor or sublimation pressure ([1]; 292.85 K) [kPa] | vapor or sublimation pressure ([1]; 295.55 K) [kPa] | vapor or sublimation pressure ([1]; 302.35 K) [kPa] | vapor or sublimation pressure ([1]; 306.25 K) [kPa] | vapor or sublimation pressure ([1]; 309.95 K) [kPa] | vapor or sublimation pressure ([1]; 313.65 K) [kPa] |
| --- | --- | --- | --- | --- | --- | --- | --- | --- | --- | --- | --- | --- | --- | --- | --- | --- | --- |
|  |  |  |  |  |  | CC(Cl)(Cl)Cl [1,1,1-trichloroethane] | 16.69 ± 0.35 | 20.34 ± 0.41 | 25.22 ± 0.49 | 30.78 ± 0.57 | 1.4354 ± 0.0007 |  |  |  |  |  |  |
|  |  |  |  |  |  | ClCCCl [1,2-dichloroethane] | 10.47 ± 0.25 | 13.34 ± 0.91 | 16.77 ± 1.1 | 20.88 ± 1.3 | 1.4421 ± 0.0007 | 8.09 ± 0.21 | 9.23 ± 0.23 | 12.81 ± 0.29 | 15.46 ± 0.33 | 18.17 ± 0.37 | 21.29 ± 0.42 |
| 1.16 ± 0.1 | 1.5 ± 0.1 | 1.65 ± 0.11 | 2.6 ± 0.12 | 3 ± 0.13 | 4.03 ± 0.14 | O=C1CCCC1 [cyclopentanone] | 1.61 ± 0.33 | 2.03 ± 0.11 | 2.68 ± 0.38 | 3.41 ± 0.13 | 1.4347 ± 0.0007 |  |  |  |  |  |  |

Reference: the NIST ThermoML archive (doi:10.1016/j.jct.2005.07.016)
